The values that follow come from US20050267020A1, “Polypeptides derived from inducible hsp70 and pharmaceutical compositions containing the same” (priority 2001, published 2005).

One experiment concerns human CD8+ cells. The experiment is described as follows: Generation of CTL from human PBMC with peptide- or polyepitope-pulsed dendritic cells, intracellular IFN-γ staining. Format: cell-based. To be noted: human PBMC; multiple restimulations of CD8+ cells; T2 cells loaded with p380, p391 or p393. Here is the method: The three graphs entitled hCTL380, hCTL391 and hCTL393 represent respectively the testing of p380, p391 and p393-specific human CTLs. P391 and p393 specific CTLs were tested towards EBV-B cells, whereas p380 specific CTLs were tested towards T2 cells. The number of IFN-γ producing CD8+ cells for 10^5 CD8+ cells upon activation, indicated on the X-axis, was measured, as assessed by staining cells for CD8 and intracellular IFN-γ.
Polyepitope induced human CTL were tested for their capacity to respond to T2 cells loaded with p380, p391 or p393 or the irrelevant HIVpol589 peptides in intracellular IFN-γ staining. The X axis represents the number of IFNγ-producing CTL/10^5 CD8+ cells. On the Y axis, upper to lower bars represent the results obtained when cells were loaded respectively with irrelevant HIV pol589 peptides, or with p380, p391 or p393 peptides.
Generation of CTL from Human Peripheral Blood Mononuclear Cells (PBMC). Fresh PBMC collected from healthy donnors under informed consent were serologically typed for the studied HLA-class I molecule, and purified using standard Ficoll-Paque (Amersham Pharmacia Biotech AB). Dendritic cells (DC) were prepared by cultivating plastic adherent PBMC in the presence of 500 U/mL GM-CSF (R&D Systems Inc. MN) and 500 U/mL IL-4 (R&D Systems Inc. MN) for 7 days such as described in Keogh et al. (30).
DC were then maturated for 2 days with 2 μg/mL anti-CD40 antibody and 100 ng/mL Poly I:C (Sigma-Aldrich). […] Autologous CD8+ purified T-cells (CD8 MicroBeads, Miltneyi Biotec Inc. CA) were stimulated weekly with DC pulsed for two hours with peptide (10 μM) and irradiated at 35Gy at a T:DC ratio of 10:1 in culture medium (CM; RPMI 1640 supplemented with 10% human AB serum, […] L-glutamine and gentamycin). 1×10^3 U/mL IL-6 and SU/mL IL-12 (R&D Systems Inc. MN) were added during the first week of culture. 20 U/mL clinical grade IL-2 (Proleukin, Chiron Corp.) and 10 ng/mL IL-7 (R&D Systems Inc. MN) were added during the next two weeks of culture. 7 days after the last stimulation with DC, peptide specific IFN-γ secreting CD8+ T cells were magnetically sorted following encounter of the peptide presented by HLA-A*0201+ B-EBV cells (IFN-γ Secretion Assay, Miltenyi Biotec Inc. CA). The characterization of peptide-specific T cells was tested 7 days after the purification step.
Intracellular IFN-g Staining. 5×10^4 T cells were incubated with 10^5 stimulating peptide loaded EBV-B cells or with 10^5 tumor cells in the presence of 20 μg/ml brefeldin-A (Sigma, Oakville, Canada). Six hours later, they were washed, stained with r-phycoerythrin-conjugated anti-CD8 antibody (Caltag Laboratories, Burlingame, Calif.) in PBS for 25 min at 4° C., washed and fixed with 4% PFA. Then, cells were permeabilized with PBS 0.5% BSA 0.2% saponin (Sigma, Oakville, Canada), and stained with allophycocyanin-conjugated anti-IFNg mAb (PharMingen, Mississauga, Canada) for 25 min at 4° C. Cells were analyzed on FACSCalibur (Becton Dickinson, Mountain View, Calif.).

A further experiment deals with HHD mice. In words: Vaccination of HHD mice, ex vivo IFN-γ ELISPOT assay. It counts as in vivo, mouse. From the text: Immune responses were monitored ex vivo in an IFN-γ Elispot assay. The X axis represents the percentage of immunized mice responding to the different epitopes.
The 8 graphs represent the immune responses obtained for each of the immunized mice with the 22-mer epitope. The X axis represents the number of IFN-γ producing CTLs for 10^5 ex vivo CD8+ cells upon activation. On the Y axis, the bars represent the respective level of IFN-γ producing CTLs against p391 or p393 peptide or against irrelevant HIV pol589 peptides.
Generation of CTL in HLA-transgenic mice. HLA-transgenic mice were injected subcutaneously at the base of the tail with 100 μg of peptide emulsified in incomplete Freund's adjuvant (IFA) in the presence of 140 μg of the I-A^b restricted HBVcore-derived T-helper epitope (128-140; sequence TPPAYRPPNAPIL). After 11 days, spleen cells (5×10^7 cells in 10 mL) were stimulated in vitro with peptide (10 μM). […]
ELISPOT Assay. The ELISPOT assay was used to quantify peptide epitope-specific, IFN-γ-releasing effector cells. […] The spots were counted using an automated image analysis system ELISPOT Reader (A/D Strassberg, Germany). The peptide-specific IFN-γ secreting cells frequency could be calculated from the numbers of spot-forming cells and from the CD8+ frequency in the studied lymphocyte population, adressed by immunostaining with an anti-CD8 mAb (clone 3B5; Caltag Laboratories, CA).

With “LMGDKSENVQDLLLLDVAPLSL [22-mer polyepitope]”, the “specificity of human CTL lines induced with pulsed dendritic cells” value in the experiment with human CD8+ cells is recorded as “showed specificity towards all three Hsp70 epitopes”. For the same sequence, the “mice responding after vaccination” value in the experiment on HHD mice is recorded as “induced responses in most mice”. The “epitopes against which immune responses were raised after vaccination” value in the experiment with HHD mice (HSP380, HSP391, HSP393 epitopes) is on record as “induced immune responses against all three Hsp70 epitopes”.
